Data published in the NIST ThermoML archive (doi:10.1021/je0301038).
Numbers after ± are expanded uncertainties.

Assay: xn = mol fraction of the nth substance listed
Conditions: Liquid, Pycnometric method, x1 = 0.4998

For `FC(Cl)(Cl)Cl` [trichlorofluoromethane] + FC(F)(Cl)Cl, the mass density (229.99 K, 36407 kPa) was 1642.58 ± 1.7 kg/m3, the mass density (230 K, 1073 kPa) was 1584.87 ± 2 kg/m3 and the mass density (230 K, 2061 kPa) was 1587.07 ± 2 kg/m3. It also gave a mass density (230 K, 3560 kPa) of 1589.87 ± 2 kg/m3, a mass density (230.01 K, 1362 kPa) of 1585.49 ± 2 kg/m3 and a mass density (230.01 K, 1769 kPa) of 1586.39 ± 2 kg/m3. The mass density (230.01 K, 2415 kPa) was 1587.69 ± 2 kg/m3, the mass density (230.01 K, 2764 kPa) was 1588.35 ± 2 kg/m3 and the mass density (230.01 K, 3080 kPa) was 1589 ± 2 kg/m3. It also gave a mass density (230.01 K, 10736 kPa) of 1602.83 ± 1.9 kg/m3, a mass density (230.01 K, 22197 kPa) of 1621.64 ± 1.8 kg/m3 and a mass density (230.01 K, 50366 kPa) of 1660.98 ± 1.7 kg/m3. It also gave a mass density (230.01 K, 63788 kPa) of 1677.26 ± 1.6 kg/m3, a mass density (270 K, 755 kPa) of 1479.99 ± 2 kg/m3 and a mass density (270 K, 1039 kPa) of 1480.78 ± 2 kg/m3. For the same compound, the mass density (270 K, 1716 kPa) was 1482.68 ± 2 kg/m3, the mass density (270 K, 2040 kPa) was 1483.59 ± 2 kg/m3 and the mass density (270 K, 2400 kPa) was 1484.58 ± 2 kg/m3. The mass density (270 K, 2768 kPa) was 1485.54 ± 2 kg/m3, the mass density (270 K, 3627 kPa) was 1487.88 ± 2 kg/m3 and the mass density (270 K, 15483 kPa) was 1517.06 ± 1.8 kg/m3. It also gave a mass density (270 K, 25381 kPa) of 1538 ± 1.7 kg/m3, a mass density (270 K, 35970 kPa) of 1557.73 ± 1.7 kg/m3 and a mass density (270 K, 45944 kPa) of 1574.79 ± 1.6 kg/m3. The mass density (270 K, 56182 kPa) was 1590.7 ± 1.6 kg/m3, the mass density (270 K, 63322 kPa) was 1601.09 ± 1.6 kg/m3 and the mass density (270.01 K, 1412 kPa) was 1481.79 ± 2 kg/m3. For the same compound, the mass density (270.01 K, 3077 kPa) was 1486.41 ± 2 kg/m3, the mass density (270.01 K, 8526 kPa) was 1500.56 ± 1.9 kg/m3 and the mass density (298.14 K, 686 kPa) was 1402.27 ± 2.1 kg/m3. It also gave a mass density (298.14 K, 1019 kPa) of 1403.48 ± 2.1 kg/m3, a mass density (298.14 K, 2067 kPa) of 1407.39 ± 2.1 kg/m3 and a mass density (298.14 K, 2429 kPa) of 1408.71 ± 2.1 kg/m3. It also gave a mass density (298.14 K, 2749 kPa) of 1409.89 ± 2.1 kg/m3, a mass density (298.14 K, 6905 kPa) of 1424.28 ± 2 kg/m3 and a mass density (298.14 K, 14368 kPa) of 1447.12 ± 1.9 kg/m3. The mass density (298.14 K, 20993 kPa) was 1465.01 ± 1.8 kg/m3, the mass density (298.14 K, 42543 kPa) was 1512.9 ± 1.6 kg/m3 and the mass density (298.14 K, 50266 kPa) was 1527.35 ± 1.6 kg/m3. The mass density (298.14 K, 57226 kPa) was 1539.49 ± 1.6 kg/m3, the mass density (298.14 K, 63755 kPa) was 1550.31 ± 1.6 kg/m3 and the mass density (298.14 K, 69807 kPa) was 1559.74 ± 1.5 kg/m3. The mass density (298.15 K, 1398 kPa) was 1404.87 ± 2.1 kg/m3, the mass density (298.15 K, 1714 kPa) was 1406.06 ± 2.1 kg/m3 and the mass density (298.15 K, 3086 kPa) was 1411.1 ± 2.1 kg/m3. The mass density (298.15 K, 3454 kPa) was 1412.44 ± 2.1 kg/m3, the mass density (298.15 K, 28151 kPa) was 1482.31 ± 1.7 kg/m3 and the mass density (298.15 K, 36116 kPa) was 1499.98 ± 1.6 kg/m3. It also gave a mass density (319.99 K, 1077 kPa) of 1338.31 ± 2.4 kg/m3, a mass density (319.99 K, 1422 kPa) of 1340.05 ± 2.4 kg/m3 and a mass density (319.99 K, 1769 kPa) of 1341.72 ± 2.3 kg/m3. The mass density (319.99 K, 2102 kPa) was 1343.35 ± 2.3 kg/m3, the mass density (319.99 K, 2468 kPa) was 1345.14 ± 2.3 kg/m3 and the mass density (319.99 K, 2807 kPa) was 1346.81 ± 2.3 kg/m3. The mass density (319.99 K, 3154 kPa) was 1348.46 ± 2.3 kg/m3, the mass density (319.99 K, 3382 kPa) was 1349.54 ± 2.2 kg/m3 and the mass density (319.99 K, 7540 kPa) was 1367.61 ± 2.1 kg/m3. For the same compound, the mass density (319.99 K, 14192 kPa) was 1392.66 ± 1.9 kg/m3, the mass density (319.99 K, 20555 kPa) was 1413.23 ± 1.8 kg/m3 and the mass density (319.99 K, 27780 kPa) was 1434.19 ± 1.7 kg/m3. The mass density (319.99 K, 36829 kPa) was 1456.94 ± 1.6 kg/m3, the mass density (319.99 K, 43292 kPa) was 1471.79 ± 1.6 kg/m3 and the mass density (319.99 K, 49802 kPa) was 1485.45 ± 1.5 kg/m3. For the same compound, the mass density (319.99 K, 56704 kPa) was 1498.94 ± 1.5 kg/m3, the mass density (319.99 K, 62748 kPa) was 1510.07 ± 1.5 kg/m3 and the mass density (319.99 K, 69080 kPa) was 1521.1 ± 1.5 kg/m3. The mass density (349.98 K, 1415 kPa) was 1240.4 ± 2.5 kg/m3, the mass density (349.98 K, 2137 kPa) was 1246.23 ± 2.7 kg/m3 and the mass density (349.98 K, 2476 kPa) was 1248.87 ± 2.6 kg/m3. For the same compound, the mass density (349.98 K, 2793 kPa) was 1251.27 ± 2.6 kg/m3, the mass density (349.98 K, 3057 kPa) was 1253.22 ± 2.5 kg/m3 and the mass density (349.98 K, 3564 kPa) was 1256.93 ± 2.5 kg/m3. The mass density (349.98 K, 7128 kPa) was 1280.11 ± 2.3 kg/m3, the mass density (349.98 K, 14242 kPa) was 1317.8 ± 2 kg/m3 and the mass density (349.98 K, 21180 kPa) was 1347.2 ± 1.8 kg/m3. It also gave a mass density (349.98 K, 27731 kPa) of 1370.9 ± 1.7 kg/m3, a mass density (349.98 K, 35848 kPa) of 1396.4 ± 1.6 kg/m3 and a mass density (349.98 K, 42725 kPa) of 1415.5 ± 1.6 kg/m3. It also gave a mass density (349.98 K, 49699 kPa) of 1433.1 ± 1.6 kg/m3, a mass density (349.98 K, 63152 kPa) of 1463.4 ± 1.5 kg/m3 and a mass density (349.98 K, 67876 kPa) of 1472.9 ± 1.5 kg/m3. For the same compound, the mass density (349.99 K, 1706 kPa) was 1242.74 ± 2.6 kg/m3, the mass density (349.99 K, 56839 kPa) was 1449.7 ± 1.5 kg/m3 and the mass density (374.97 K, 2088 kPa) was 1141.8 ± 3.1 kg/m3. The mass density (374.97 K, 2486 kPa) was 1147.25 ± 3.3 kg/m3, the mass density (374.97 K, 3125 kPa) was 1156.09 ± 3.4 kg/m3 and the mass density (374.97 K, 3513 kPa) was 1160.16 ± 3.3 kg/m3. For the same compound, the mass density (374.97 K, 7191 kPa) was 1197.39 ± 2.6 kg/m3, the mass density (374.97 K, 13814 kPa) was 1245.37 ± 2.1 kg/m3 and the mass density (374.97 K, 21029 kPa) was 1284.3 ± 1.9 kg/m3. For the same compound, the mass density (374.97 K, 35276 kPa) was 1341.17 ± 1.7 kg/m3, the mass density (374.98 K, 2825 kPa) was 1151.69 ± 3.3 kg/m3 and the mass density (374.98 K, 27477 kPa) was 1312.44 ± 1.8 kg/m3. It also gave a mass density (374.98 K, 42480 kPa) of 1364.11 ± 1.6 kg/m3, a mass density (374.98 K, 49122 kPa) of 1383.05 ± 1.6 kg/m3 and a mass density (374.98 K, 55869 kPa) of 1400.52 ± 1.6 kg/m3. It also gave a mass density (374.98 K, 61365 kPa) of 1413.75 ± 1.5 kg/m3, a mass density (374.98 K, 69602 kPa) of 1432.06 ± 1.6 kg/m3 and a mass density (399.96 K, 3164 kPa) of 1019.46 ± 4 kg/m3. The mass density (399.96 K, 4220 kPa) was 1047.59 ± 4.6 kg/m3, the mass density (399.96 K, 21341 kPa) was 1223.13 ± 2 kg/m3 and the mass density (399.97 K, 3545 kPa) was 1030.57 ± 4.2 kg/m3. For the same compound, the mass density (399.97 K, 4902 kPa) was 1062.22 ± 4.8 kg/m3, the mass density (399.97 K, 5593 kPa) was 1075.12 ± 4.6 kg/m3 and the mass density (399.97 K, 6171 kPa) was 1085.57 ± 3.5 kg/m3. It also gave a mass density (399.97 K, 7297 kPa) of 1101.78 ± 3.2 kg/m3, a mass density (399.97 K, 14445 kPa) of 1176.05 ± 2.3 kg/m3 and a mass density (399.97 K, 27495 kPa) of 1255.89 ± 1.8 kg/m3. For the same compound, the mass density (399.97 K, 42176 kPa) was 1315.43 ± 1.6 kg/m3, the mass density (399.97 K, 49196 kPa) was 1338.37 ± 1.6 kg/m3 and the mass density (399.97 K, 56478 kPa) was 1359.31 ± 1.6 kg/m3. For the same compound, the mass density (399.98 K, 35409 kPa) was 1290.45 ± 1.7 kg/m3, the mass density (399.98 K, 62903 kPa) was 1376.29 ± 1.5 kg/m3 and the mass density (399.98 K, 68677 kPa) was 1390.42 ± 1.6 kg/m3. For the same compound, the mass density (424.96 K, 4905 kPa) was 873.33 ± 5.4 kg/m3, the mass density (424.96 K, 5555 kPa) was 914.74 ± 4.7 kg/m3 and the mass density (424.96 K, 6222 kPa) was 944.04 ± 4.2 kg/m3. For the same compound, the mass density (424.96 K, 7091 kPa) was 972.83 ± 3.5 kg/m3, the mass density (424.96 K, 13955 kPa) was 1091.53 ± 2.8 kg/m3 and the mass density (424.96 K, 27401 kPa) was 1198.64 ± 1.9 kg/m3. For the same compound, the mass density (424.97 K, 21076 kPa) was 1156.9 ± 2.1 kg/m3, the mass density (424.97 K, 35181 kPa) was 1238.98 ± 1.7 kg/m3 and the mass density (424.97 K, 41997 kPa) was 1268.18 ± 1.6 kg/m3. The mass density (424.97 K, 49019 kPa) was 1294.18 ± 1.6 kg/m3, the mass density (424.97 K, 56094 kPa) was 1317.32 ± 1.6 kg/m3 and the mass density (424.97 K, 62391 kPa) was 1335.91 ± 1.6 kg/m3. It also gave a mass density (424.97 K, 68657 kPa) of 1352.82 ± 1.6 kg/m3.
